Measured values: article PMC6501587 (The Journal of neuroscience : the official journal of the …, 2009)
Where a chain is given by its changes, count along the chain named. Where two headings read alike, the source gives them in different places.

Experiments:
P2X2aR [1] = biological target: T1, P2X2aR (Rattus norvegicus, UniProt P49653); format: cell-based; settings: for effect on the ATP-gated current: 10 μM metal pre-applied 1 min and co-applied with 30 μM ATP; for washout period sufficient to restore normal response: after 10 μM metal
T1 sequence (P49653 1-472): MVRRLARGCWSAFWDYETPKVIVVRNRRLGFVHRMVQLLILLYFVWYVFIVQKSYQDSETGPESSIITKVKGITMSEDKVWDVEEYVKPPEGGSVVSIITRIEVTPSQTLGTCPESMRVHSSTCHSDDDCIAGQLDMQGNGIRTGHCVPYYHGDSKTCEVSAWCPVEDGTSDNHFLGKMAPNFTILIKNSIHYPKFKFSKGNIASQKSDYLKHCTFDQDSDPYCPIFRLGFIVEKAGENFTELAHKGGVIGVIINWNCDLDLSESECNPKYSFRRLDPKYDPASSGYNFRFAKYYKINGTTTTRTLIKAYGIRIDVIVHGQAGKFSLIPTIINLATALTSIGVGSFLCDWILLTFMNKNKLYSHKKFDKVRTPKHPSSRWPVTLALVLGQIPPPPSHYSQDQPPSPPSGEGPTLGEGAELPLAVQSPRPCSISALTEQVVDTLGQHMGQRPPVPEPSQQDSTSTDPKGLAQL

P2X2a-C430A = biological target: T2, P2X2a-C430A (Rattus norvegicus, UniProt P49653, C430A); format: cell-based; settings: oocytes; for potentiation compared to wild type P2X2aR: zinc or copper
T2 sequence (P49653 1-472 C430A): T1 sequence (P49653 1-472) with C430A

P2X2a-C430S [2] = biological target: T3, P2X2a-C430S (Rattus norvegicus, UniProt P49653, C430S); format: cell-based; settings: oocytes; for potentiation compared to wild type P2X2aR: copper or zinc
T3 sequence (P49653 1-472 C430S): T1 sequence (P49653 1-472) with C430S

P2X4/2a chimera = format: cell-based, rat; settings: oocytes; for effect on deactivation constant: copper or zinc
P2X4/2b chimera = format: cell-based, rat; settings: oocytes
P2X4R = biological target: T4, P2X4R (Rattus norvegicus, UniProt P51577); format: cell-based; settings: oocytes; for effect on ATP-induced currents: 10 μM metal pre-applied 1 min and co-applied with 10 μM ATP
T4 sequence (P51577 1-388): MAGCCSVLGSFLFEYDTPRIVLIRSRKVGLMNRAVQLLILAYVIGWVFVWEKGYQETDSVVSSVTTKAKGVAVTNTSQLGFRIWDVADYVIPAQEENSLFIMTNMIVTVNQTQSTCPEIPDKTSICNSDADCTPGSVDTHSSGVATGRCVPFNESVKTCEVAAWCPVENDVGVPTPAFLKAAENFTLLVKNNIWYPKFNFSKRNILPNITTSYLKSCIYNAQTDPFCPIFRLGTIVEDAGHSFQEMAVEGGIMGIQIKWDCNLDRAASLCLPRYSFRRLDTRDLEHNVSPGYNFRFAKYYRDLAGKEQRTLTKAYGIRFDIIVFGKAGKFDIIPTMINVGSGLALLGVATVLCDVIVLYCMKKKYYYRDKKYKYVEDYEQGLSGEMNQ

P2X2aR [3] = biological target: T1, P2X2aR; experiment: ATP-evoked currents, whole-cell patch clamp, HEK293 cells expressing P2X2aR; format: cell-based
P2X2bR [4] = biological target: T5, P2X2bR (Rattus norvegicus, UniProt P49653, DEL370-438); format: cell-based; settings: HEK293 cells
T5 sequence (P49653 with tags, fused parts or gaps DEL370-438): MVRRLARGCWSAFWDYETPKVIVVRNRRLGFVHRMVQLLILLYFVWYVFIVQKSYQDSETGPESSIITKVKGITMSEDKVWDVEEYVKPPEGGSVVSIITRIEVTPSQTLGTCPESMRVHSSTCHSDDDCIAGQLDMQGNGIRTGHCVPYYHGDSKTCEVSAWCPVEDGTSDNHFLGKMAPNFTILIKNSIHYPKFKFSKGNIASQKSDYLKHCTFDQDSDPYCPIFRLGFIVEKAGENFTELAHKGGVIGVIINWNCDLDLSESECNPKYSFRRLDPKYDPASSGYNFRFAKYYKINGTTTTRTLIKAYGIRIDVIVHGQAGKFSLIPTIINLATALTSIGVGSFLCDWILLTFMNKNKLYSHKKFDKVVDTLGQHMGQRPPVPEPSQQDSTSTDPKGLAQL

P2X2a-C430S [5] = biological target: T3, P2X2a-C430S; format: cell-based; settings: HEK293 cells
P2X2bR [6] = biological target: T5, P2X2bR; format: cell-based; settings: oocytes
P2X2R = settings: after application; ref Mason et al. (2004); cited from earlier work
[7] = saturating concentration of ATP

[Cl-].[Cl-].[Zn+2] [zinc]
effect on the ATP-gated current (P2X2aR [1]; oocytes): potentiated
washout period sufficient to restore normal response (P2X2aR [1]; oocytes): ≤ 10 min
potentiation compared to wild type P2X2aR (P2X2a-C430A): not significantly altered
potentiation compared to wild type P2X2aR (P2X2a-C430S [2]): not changed
potentiation of 1 μM ATP-induced current (P2X4/2a chimera; 10 μM metal, 1 μM ATP): 2.6 ± 0.3 fold
effect on deactivation constant (P2X4/2a chimera): did not modify significantly
potentiation of receptor activity (P2X4/2b chimera; 10 μM zinc, 1 μM ATP): 2.6 ± 0.3 fold
effect on ATP-induced currents (P2X4R): potentiated

[Cl][Cu][Cl] [copper]
increase of 10–90% deactivation time (P2X2aR [1]): 2 fold
effect on the ATP-gated current (P2X2aR [1]; oocytes): potentiated
washout period sufficient to restore normal response (P2X2aR [1]; oocytes): ≤ 10 min
potentiation compared to wild type P2X2aR (P2X2a-C430A): not significantly altered
potentiation compared to wild type P2X2aR (P2X2a-C430S [2]): not changed
inhibition of ATP-evoked currents (P2X4/2a chimera; 10 μM copper, 1 μM ATP): 50%
effect on deactivation constant (P2X4/2a chimera): did not modify significantly
decrease of maximal ATP response (P2X4/2a chimera; copper, not shown): 40%
inhibition of ATP-evoked currents (P2X4/2b chimera; 10 μM copper, 1 μM ATP): 55 ± 12%
effect on ATP-induced currents (P2X4R): inhibited
increase of ATP-evoked currents (P2X2aR [3]; 10 μM metal, ATP ~EC15): 4.5 ± 0.5 fold
increase of ATP-gated currents (P2X2bR [4]; 10 μM metal, ATP ~EC15): 5.7 ± 1.5 fold
increase of ATP-gated currents (P2X2a-C430S [5]; 10 μM metal, ATP ~EC15): 4.2 ± 0.9 fold

C=C(C)[C@H]1Cc2c(ccc3c2O[C@@H]2COc4cc(OC)c(OC)cc4[C@@H]2C3=O)O1 [rotenone]
fold-increase of the ATP-evoked currents (P2X2aR [1]; 600 nM rotenone, 10 min prior to ATP, oocytes): 1.75 ± 0.38 fold
potentiation by rotenone (P2X2bR [6]; 600 nM): not observed
fold-increase of the ATP-evoked currents (P2X2aR [3]; 600 nM rotenone): 1.52 ± 0.08 fold
potentiation by rotenone (P2X2bR [4]; 600 nM): not observed
effect on P2X2R-mediated currents (P2X2R): transient increase followed by sustained inhibition

CO/C(=C/C(N)=O)[C@H](C)[C@H](/C=C/c1csc(-c2csc([C@@H](C)/C=C/C=C/C(C)C)n2)n1)OC [myxothiazol]
effect of higher concentrations on receptor activity (biphasic) (P2X2aR [1]; higher concentrations, data not shown, expression system not given): inhibited the receptor activity
maximal potentiation of ATP-evoked currents (P2X2aR [1]; myxothiazol applied 10 min prior to ATP, oocytes): 1.95 ± 0.18 fold
sensitivity to myxothiazol (P2X2bR [6]): insensitive
increase of ATP-evoked currents (P2X2aR [3]; 100 nM myxothiazol, 3 μM ATP): 1.95 ± 0.14 fold
sensitivity to myxothiazol (P2X2bR [4]): insensitive
effect on P2X2R-mediated currents (P2X2R): transient increase followed by sustained inhibition

CSS(C)(=O)=O [MMTS, Methylmethane-thiosulfonate]
effect on H2O2 potentiation (P2X2aR [1]): abolished
current increase by agent alone (transient and reversible) (P2X2aR [1]; MMTS alone, oocytes, data not shown): 20%
effect on mercury-induced potentiation (P2X2aR [1]; MMTS treatment, oocytes): abolished

O[C@@H](CS)[C@@H](O)CS (racemic) [DTT, dithiothreitrol]
effect on ATP-evoked currents (P2X2aR [1]; 1 mM DTT alone, oocytes): did not modify the ATP-evoked currents
effect of co-application with H2O2 (P2X2aR [1]; DTT co-applied with H2O2, oocytes): abolished the effect of H2O2
effect on receptor activity (P2X4R; DTT alone): did not modify the receptor activity
effect of co-application with H2O2 (P2X4R; DTT co-applied with H2O2): the inhibition was completely obliterated

Nc1ncnc2c1ncn2[C@@H]1O[C@H](COP(=O)([O-])OP(=O)([O-])OP(=O)([O-])O)[C@@H](O)[C@H]1O.[Na+].[Na+].[Na+] [ATP, ATP tri sodium salt]
10–90% deactivation time (P2X2aR [1]; ATP alone (before mercury), oocytes): 4.4 ± 0.2 s
EC50 (P2X2aR [1]; ATP alone, Xenopus laevis oocytes, Hill equation): 33.3 ± 2.5 µM
nH (P2X2aR [1]; ATP, oocytes, Hill equation): 1.4 ± 0.1
Imax (P2X2aR [1]; saturating concentration of ATP, oocytes): 12.1 ± 2.9 μA
EC50 (P2X2bR [6]; ATP alone, Hill equation): 59.2 ± 9.1 µM
nH (P2X2bR [6]; ATP): 1.4 ± 0.3
Imax (P2X2bR [6]; [7]): 15.6 ± 1.9 μA
EC50 (P2X2a-C430A; ATP alone, Hill equation): 293 ± 70 µM
nH (P2X2a-C430A; ATP): 1.2 ± 0.3
reduction of ATP potency compared to the wild type (P2X2a-C430A): 10 fold
Imax (P2X2a-C430A; [7]): 1.2 ± 0.5 μA
EC50 (P2X2a-C430S [2]; ATP alone, Hill equation): 45 ± 6.3 µM
nH (P2X2a-C430S [2]; ATP): 1.4 ± 0.3
Imax (P2X2a-C430S [2]; [7]): 11.8 ± 0.8 μA
10–90% deactivation time (P2X4/2a chimera; ATP alone (before mercury)): 12.6 ± 1.1 s
EC50 (P2X4/2a chimera; ATP alone, Hill equation): 4.8 ± 0.6 µM
nH (P2X4/2a chimera; ATP): 0.9 ± 0.2
Imax (P2X4/2a chimera; [7]): 6.7 ± 1.5 μA
EC50 (P2X4/2b chimera; ATP alone, Hill equation): 4.6 ± 2.4 µM
nH (P2X4/2b chimera; ATP): 1.2 ± 0.1
Imax (P2X4/2b chimera; [7]): 14.0 ± 1.5 μA
EC50 (P2X4R; ATP alone, Hill equation): 11 ± 2.6 µM
Imax (P2X4R; [7]): 4.7 ± 0.6 μA
nH (P2X2aR [3]; ATP): 1.2 ± 0.2
EC50 (P2X2aR [3]; ATP alone, Hill equation): 10.2 ± 1.3 µM
Imax (P2X2aR [3]; [7]): 4.6 ± 0.3 nA
EC50 (P2X2bR [4]; ATP alone, Hill equation): 7.6 ± 1.3 µM
nH (P2X2bR [4]; ATP): 1.1 ± 0.3
Imax (P2X2bR [4]; [7]): 4.2 ± 0.9 nA
EC50 (P2X2a-C430S [5]; ATP alone, Hill equation): 18.1 ± 3.3 µM
nH (P2X2a-C430S [5]; ATP): 1.5 ± 0.6
Imax (P2X2a-C430S [5]; [7]): 5.4 ± 0.9 nA
